Results reported in patent publication US10143748B2, “B-cell reduction using CD37-specific and CD20-specific binding molecules” (Emergent Product Development Seattle, LLC, priority 2005, dated 2018).

Tests used:
[1] = test system: B-CLL cells; test: MTT cell viability of CLL cells with fludarabine and TRU-016; type: cell-based, human; conditions: MTT at 48 hr, TRU-016 with fludarabine, FIG. 27
Procedure: Cells were treated with TRU-016 at dosages ranging from 0.1-100 μg/mL and with fludarabine at dosages ranging from 0-20 μM (see FIG. 27). TRU-016 was provided by Trubion Pharmaceuticals (Seattle, Wash.). Fludarabine (F-araA) was purchased from SIGMA (St. Louis, Mo.). RPMI 1640 media was purchased from Invitrogen (Carlsbad, Calif.). Fluorescein isothiocyanate (FITC)-labeled annexin V, and propidium iodide (P1) were purchased from BD Pharmingen, San Diego, Calif. 13-(4,5-dimethylthiazol-2-yl)-2,5-diphenyltetrazolium bromide (MTT) was purchased from Sigma (St. Louis, Mo.). B-CLL cells were isolated immediately following donation using ficoll density gradient centrifugation (Ficoll-Paque Plus, Amersham Biosciences, Piscataway, N.J.). […]
Cells were treated in vitro as described herein. […] Cell viability was assessed using MTT assays at 48 hr, and apoptosis was measured using Annexin V/PI at 24 hr.
MTT assays were performed to measure cell viability as described herein. […] Samples were measured with a plate reader at 0.D.540. Cell viability was expressed as the percentage of viability compared with media control.
A synergistic effect was determined by use of the isobologram method. […]

[2] = test system: Ramos B cells; test: CDC assay, Ramos B cells with human serum complement, propidium iodide; type: cell-based; conditions: Ramos B cells, human serum
Procedure: (§1) The cells were incubated 60 minutes at 37° C. […] Samples were incubated 15 minutes at room temperature in the dark prior to analysis by flow cytometry using a FACsCalibur and CellQuest software (Becton Dickinson).
as §1

## G28-1 scFv VH11S(SSC—P)H WCH2 WCH3 [TRU-016]
[1]
  relative cell viability in cells treated with fludarabine: effectively reduced relative cell viability
[2]
  CDC activity with human complement, single reagent: fails to mediate CDC unless aggregates are present
